Data reported in PMC4380424, “Prediction of Overall In Vitro Microsomal Stability of Drug Candidates Based on Molecular Modeling and Support Vector Machines. Case Study of Novel Arylpiperazines Derivatives” (PLoS ONE, 2015).
“Also recorded” adds a separate entry of the source.

How the values were obtained:
[1] = LC-Q-TOF-MS/MS metabolite structure elucidation after microsomal incubation; conditions: HLM + NADPH incubation
Procedure: (§1) The studied compounds were dissolved in acetonitrile (compounds 1, 3, 4, 10, 18, 19, 21, 22, 23, 24, 25, 26, 27, 28, 29), water (compounds 2, 7, 9, 11, 12, 13, 14, 15, 16, 17, 20, 30) or dimethyl sulfoxide (compounds 5 and 6), and diluted in phosphate buffer (pH = 7.4) to obtain 100 μM solutions. A 10 mM NADPH solution in phosphate buffer was prepared before incubations. Final concentrations in the incubation mixes were 5 μM of studied compound, 500 μM of NADPH and 1 mg/ml of human liver microsomes.
(§2) Using a MyBlock mini dry-bath (Benchmark Scientific, NJ, USA), mixtures without the compounds were subjected to a 5 min pre-incubation at 37°C before each experiment. Incubations were initiated with the addition of 15 μL of the compound solution to the mixture. The experiment lasted for 30 min. Immediately after addition of the compound, 50 μL of incubation mixture was collected and mixed with 50 μL of the stopping reagent, which was ice-cold acetonitrile containing 5 μM buspirone as internal standard. The next sample collection points were after 5, 10, 15 and 30 minutes of incubation time. After stopping the reaction, suspensions were centrifuged for 10 minutes at 7378 g using a Microfuge 16 (Beckman Instruments, Fullerton, CA, USA). Subsequently, 70 μL of supernatant thus obtained was directly analyzed using LC-MS (Agilent Technologies, Santa Clara, CA, USA).
Tandem mass spectra of the metabolites were obtained with the use of an Agilent 1290 LC system connected to a hybrid Q-TOF tandem mass spectrometer (Agilent 6540 Series Accurate Mass Q-TOF-MS/MS). […] The Dual ESI source was operated in positive ion mode with the following conditions: the fragmentor voltage was set at 150V, nebulizer gas was set at 40 psig, capillary voltage was set at 3000 V, drying gas flow rate and temperature were set at 10 L/min and 300°C, respectively. The MS was operated in targeted MS/MS acquisition mode with a fixed collision energy of 35 V and a mass range of 30–1700 m/z. […] The instrument was operated in High Resolution mode (4 GHz). The Q-TOF was calibrated using reference masses 121.050873, 149.02332 and 922.009798 during the analysis run to ensure constant mass correction.
Several derivatives that varied in their degrees of non-pharmacophore ring saturation, R, R’ substituents and pharmacophore parts (2-pyridyl, 2-pyrimidynyl, phenyl-CF3), were chosen to collect fragmentation spectra using a Q-TOF tandem mass spectrometer and LC conditions as described earlier. […] The compounds’ structures and chromatographs were submitted to MassHunter Workstation Software MetaboliteID ver. B.02.00 build 2.0.121 to detect possible biotransformation products.

[2] = Metabolic stability: in vitro incubation with human liver microsomes and NADPH, LC-MS quantification; conditions: pooled human liver microsomes, pH 7.4
Procedure: as §1, §2
(§3) The incubation and LC-MS analysis were repeated twice for each compound. To ensure that the biological conditions were valid, and no compound degradation occurs related to the addition of the enzyme solution, a negative control for each derivative was also performed.
(§4) The LC analysis was carried out using an Agilent 1260 Infinity system (Agilent Technologies) consisting of a binary pump, autosampler, temperature-controlled column compartment and UV variable wavelength detector, coupled with an Agilent 6120 Single Quad mass detector. Incubation samples were separated at 40°C on a Poroshell 120 EC-C-18 column (3 mm x 100 mm, 2.7 μm), provided by Agilent Technologies. The data were collected and processed in ChemStation software (v. B. 04.03, Agilent Technologies, Santa Clara, CA, USA). The injection volume was 10 μL. Mobile phases consisted of deionized water (phase A) and acetonitrile (phase B), both with 10 mM ammonium formate buffer (pH = 3) added. Gradient elution program was as follows: 0–15 min—5%-100% B, 15–16 min—100% B, 16–16.10 min—100%-5% B, 16.10–21 min 5% B. The flow rate was 0.5 ml/min. The total time for a single analysis was 21 minutes. MS detection was performed using an Agilent 6120 Single Quad mass spectrometer (Agilent Technologies) equipped with an electrospray (ESI) ion source. A nebulizer (pressure set to 40 psig) allowed for the gas phase ionization of studied compounds. Nitrogen (NM32LA Nitrogen Generator, Peak Scientific Instruments, Billerica, MA, USA) was used as the drying gas, with a flow rate of 10 L/min and a drying temperature of 300°C. Capillary voltage was set to 3000 V. Fragmentor voltage was set to 150 V. Chromatograms were collected with the use of single ion monitoring (SIM) in positive ion mode.
(§5) Half-life evaluation requires a compound depletion plot, which is obtained by plotting the time of incubation against the logarithmic peak area ratio (the ratio of the compound peak area to the internal standard peak area). […] After the elimination rate constant was designated, half-lives were calculated (Equation 1).

in vitro = conditions: human, microsomes, pH 7.4
Procedure: as §1, §2, §3, §4, §5

| Structure (SMILES) | Type of biotransformation, metabolite M1 [1] | half-life at 5 μM [2] [min] | Type of biotransformation, metabolite M2 [1] | Type of biotransformation, metabolite M3 [1] | half-life at 5 μM (in vitro) [min] |
| --- | --- | --- | --- | --- | --- |
| O=c1c(-c2ccccc2)c2n(c(=O)n1CCCCN1CCN(c3ncccn3)CC1)CCCC2 [Compound 30] | hydroxylation of the non-pharmacophore part of the molecules; also recorded: hydroxylation in both pharmacophore and non-pharmacophore site | 9.32 | hydroxylation of the non-pharmacophore part of the molecules; also recorded: Hydroxylation in the non-pharmacophore part of the molecule; also recorded: hydroxylation | hydroxylation |  |
| O=C1C(c2ccccc2)C2CCCCN2C(=O)N1CCCCN1CCN(c2ccccc2F)CC1 (stereo not shown) [Compound 25] |  |  |  |  | 5.77 |
| O=C1CC2(CCCC2)CC(=O)N1CCCCN1CCN(c2ncccn2)CC1 [Buspirone, buspirone, reference compound] |  | 6.59 |  |  |  |

Second part, led by results:

| Type of biotransformation, metabolite M1 [1] | half-life at 5 μM [2] [min] | Structure (SMILES) | Type of biotransformation, metabolite M2 [1] | Type of biotransformation, metabolite M3 [1] | half-life at 5 μM (in vitro) [min] |
| --- | --- | --- | --- | --- | --- |
| Hydroxylation in the pharmacophore part | 4 | COc1ccccc1-c1c(=O)n(CCCCN2CCN(c3ncccn3)CC2)c(=O)n2ccccc12 [Compound 11] | hydroxylation | O-demethylation reaction along with hydroxylation in the pharmacophore part; also recorded: O-demethylation and hydroxylation |  |
| hydroxylation | 5.29 | O=c1c(-c2ccccc2)c2ccccn2c(=O)n1CCCCN1CCN(c2ncccn2)CC1 [Compound 6] | double hydroxylation in pharmacophore part |  |  |
